Measured values: ChEMBL document CHEMBL2010765, “Structure-activity relationship (SAR) development and discovery of potent indole-based inhibitors of the hepatitis C virus (HCV) NS5B polymerase” (J Med Chem, 2012)
pEC50, pIC50: −log10 of the molar value.

Tests used:
Hepatitis C virus [1] = test: Inhibition of HCV subtype 1b NS5B Cdelta21 RNA dependent RNA polymerase expressed in Escherichia coli JM109 assessed as inhibition of [alpha32P]CTP incorporation after 1 hr by scintillation assay; parameters: species or system Hepatitis C virus subtype 1b; settings: JM 109, 1 h
Hepatitis C virus [2] = test: Antiviral activity against HCV infected in human hepatoma cells; type: functional, organism-based, Hepacivirus hominis
[3] = AUC (0 to 24 hrs) in rat at 10 mg/kg, po; type: ADME, organism-based; parameters: time < 24 hr, dose 10 mg/kg, route oral; settings: plasma

SMILES | pIC50 (Hepatitis C virus [1]) | pEC50 (Hepatitis C virus [2]) | AUC(0-t) at 24 h [3]
Nc1cc(Cn2c(C(=O)O)c(-c3ccc[nH]c3=O)c3cc(Cl)ccc32)ccn1 | 7.28 |  | 
O=C(O)c1c(-c2ccc[nH]c2=O)c2cc(C(F)(F)F)ccc2n1Cc1ccc(F)cc1F | 7.60 | 7.00 | 
Nc1cc(Cn2c(C(=O)O)c(-c3ccc[nH]c3=O)c3cc(C(F)(F)F)ccc32)ccn1 | 7.77 | 7.00 | < 0.1 µM·h
O=C(O)c1c(-c2ccccc2F)c2cc(Cl)ccc2n1Cc1ccccc1 |  | < 4.00 | 
CCOc1ccc2c(c1)c(-c1ccc[nH]c1=O)c(C(=O)O)n2Cc1cc(F)ccc1F | 7.10 | 7.00 | 
O=C(O)c1c(-c2ccc[nH]c2=O)c2cc(Br)ccc2n1Cc1cc(F)ccc1F | 8.52 | 7.00 | 
CCc1ccc2c(c1)c(-c1ccc[nH]c1=O)c(C(=O)O)n2Cc1cc(F)ccc1F | 8.40 | 7.00 | 
Nc1cc(Cn2c(C(=O)O)c(-c3ccc[nH]c3=O)c3c(Cl)c(Cl)ccc32)ccn1 | 6.12 | 7.00 | 
Nc1cc(Cn2c(C(=O)O)c(-c3ccc[nH]c3=O)c3c(Br)cccc32)ccn1 | 5.40 | 7.00 | 
Nc1cc(Cn2c(C(=O)O)c(-c3ccc[nH]c3=O)c3cc(Cl)c(Cl)cc32)ccn1 | 7.33 | 7.00 | 
Nc1cc(Cn2c(C(=O)O)c(-c3ccc[nH]c3=O)c3cc(Br)ccc32)ccn1 | 7.33 | 7.00 | 
Nc1cc(Cn2c(C(=O)O)c(-c3ccc[nH]c3=O)c3cc(-c4cccc(=O)[nH]4)ccc32)ccn1 | 5.15 | 7.00 | 
Nc1cc(Cn2c(C(=O)O)c(-c3ccc[nH]c3=O)c3cc(C4CC4)ccc32)ccn1 | 7.19 | 7.00 | 
CS(=O)(=O)c1ccc2c(c1)c(-c1ccc[nH]c1=O)c(C(=O)O)n2Cc1ccnc(N)c1 | 5.85 | 7.00 | 
CC(=O)c1ccc2c(c1)c(-c1ccc[nH]c1=O)c(C(=O)O)n2Cc1ccnc(N)c1 | 6.48 | 7.00 | 
C#Cc1ccc2c(c1)c(-c1ccc[nH]c1=O)c(C(=O)O)n2Cc1ccnc(N)c1 | 7.32 | 7.00 | 
Nc1cc(Cn2c(C(=O)O)c(-c3ccc[nH]c3=O)c3cc(O)ccc32)ccn1 | < 4.70 | 7.00 | 
Nc1cc(Cn2c(C(=O)O)c(-c3ccc[nH]c3=O)c3cc(OC(F)(F)F)ccc32)ccn1 | 7.80 | 7.00 | 
COc1ccc(Cn2c(C(=O)O)c(-c3ccc[nH]c3=O)c3cc(C(F)(F)F)ccc32)cc1 | 7.60 | 7.00 | 
O=C(O)c1c(-c2ccc[nH]c2=O)c2cc(C(F)(F)F)ccc2n1Cc1ccc(OC(F)F)cc1 | 7.17 | 7.00 | 
Cc1ccccc1Cn1c(C(=O)O)c(-c2ccc[nH]c2=O)c2cc(C(F)(F)F)ccc21 | 8.05 | 7.00 | 
O=C(O)c1c(-c2ccc[nH]c2=O)c2cc(C(F)(F)F)ccc2n1Cc1ccccc1F | 8.05 | 7.00 | 
Cc1ccc(Cn2c(C(=O)O)c(-c3ccc[nH]c3=O)c3cc(C(F)(F)F)ccc32)c(C)c1 | 7.80 | 7.00 | 
Cc1cccc(Cn2c(C(=O)O)c(-c3ccc[nH]c3=O)c3cc(C(F)(F)F)ccc32)c1F | 8.30 | 7.00 | 
O=C(O)c1c(-c2ccc[nH]c2=O)c2cc(C(F)(F)F)ccc2n1Cc1cc(F)ccc1F | 8.40 | 7.00 | 

SMILES | pIC50 (Hepatitis C virus [1]) | pEC50 (Hepatitis C virus [2]) | AUC(0-t) at 24 h [3]
NC(=O)c1ccc(F)c(Cn2c(C(=O)O)c(-c3ccc[nH]c3=O)c3cc(C(F)(F)F)ccc32)c1 | 8.15 | 7.00 | 
O=C(O)c1c(-c2ccc[nH]c2=O)c2cc(OC(F)(F)F)ccc2n1Cc1cc(F)ccc1F | 7.62 | 7.00 | 
COc1ccc2c(c1)c(-c1ccc[nH]c1=O)c(C(=O)O)n2Cc1cc(F)ccc1F | 7.82 | 7.00 | 
CC/C=C/c1ccc2c(c1)c(-c1ccc[nH]c1=O)c(C(=O)O)n2Cc1cc(F)ccc1F | 6.82 | 7.00 | 
Cc1ccc2c(c1)c(-c1ccc[nH]c1=O)c(C(=O)O)n2Cc1cc(F)ccc1F | 8.10 | 5.96 | 
O=C(O)c1c(-c2ccc[nH]c2=O)c2cc(CC(F)(F)F)ccc2n1Cc1cc(F)ccc1F | 8.10 | 7.00 | 
CC(C)(C)c1ccc2c(c1)c(-c1ccc[nH]c1=O)c(C(=O)O)n2Cc1cc(F)ccc1F | 8.10 | 7.00 | 
CC1(c2ccc3c(c2)c(-c2ccc[nH]c2=O)c(C(=O)O)n3Cc2cc(F)ccc2F)CC1 | 8.05 | 7.00 | 
Cc1ccc2c(c1)c(-c1ccc[nH]c1=O)c(C(=O)NS(C)(=O)=O)n2Cc1cc(F)ccc1F | 8.15 | 6.31 | 22 µM·h
CCS(=O)(=O)NC(=O)c1c(-c2ccc[nH]c2=O)c2cc(C)ccc2n1Cc1cc(F)ccc1F | 8.00 | 6.70 | 11 µM·h
Cc1ccc2c(c1)c(-c1ccc[nH]c1=O)c(C(=O)NS(=O)(=O)C(C)C)n2Cc1cc(F)ccc1F | 8.15 | 7.05 | 6.8 µM·h
Cc1ccc2c(c1)c(-c1ccc[nH]c1=O)c(C(=O)NS(=O)(=O)C1CC1)n2Cc1cc(F)ccc1F | 8.22 | 7.05 | 9.1 µM·h
CCc1ccc2c(c1)c(-c1ccc[nH]c1=O)c(C(=O)NS(C)(=O)=O)n2Cc1cc(F)ccc1F | 8.22 | 6.82 | 72 µM·h
CCc1ccc2c(c1)c(-c1ccc[nH]c1=O)c(C(=O)NS(=O)(=O)CC)n2Cc1cc(F)ccc1F | 8.22 | 7.10 | 4.6 µM·h
CCc1ccc2c(c1)c(-c1ccc[nH]c1=O)c(C(=O)NS(=O)(=O)C(C)C)n2Cc1cc(F)ccc1F | 8.30 | 7.00 | 0.8 µM·h
CCc1ccc2c(c1)c(-c1ccc[nH]c1=O)c(C(=O)NS(=O)(=O)C1CC1)n2Cc1cc(F)ccc1F | 8.52 | 7.22 | 12 µM·h
O=C(NS(=O)(=O)C1CC1)c1c(-c2ccc[nH]c2=O)c2cc(C(F)(F)F)ccc2n1Cc1cc(F)ccc1F | 8.52 | 7.30 | 4.8 µM·h
CC(C)(C)c1ccc2c(c1)c(-c1ccc[nH]c1=O)c(C(=O)NS(=O)(=O)C1CC1)n2Cc1cc(F)ccc1F | 8.22 | 7.30 | 8 µM·h
CC1(c2ccc3c(c2)c(-c2ccc[nH]c2=O)c(C(=O)NS(=O)(=O)C2CC2)n3Cc2cc(F)ccc2F)CC1 | 8.22 | 6.22 | 11 µM·h
O=C(NS(=O)(=O)C1CC1)c1c(-c2ccc[nH]c2=O)c2cc(CC(F)(F)F)ccc2n1Cc1cc(F)ccc1F | 8.15 | 6.64 | 0.67 µM·h
Cc1cc2c(-c3ccc[nH]c3=O)c(C(=O)NS(=O)(=O)C3CC3)n(Cc3cc(F)ccc3F)c2cc1Cl | 8.30 | 6.82 | 
Cc1cc2c(-c3ccc[nH]c3=O)c(C(=O)NS(=O)(=O)C3CC3)n(Cc3cc(F)ccc3F)c2cc1C(F)(F)F | 8.15 | 6.55 | 0.69 µM·h
O=C(NS(=O)(=O)C1CC1)c1c(-c2ccc[nH]c2=O)c2cc(C(F)(F)F)c(F)cc2n1Cc1cc(F)ccc1F | 8.15 | 6.55 | 
CCc1cc2c(-c3ccc[nH]c3=O)c(C(=O)NS(=O)(=O)C3CC3)n(Cc3cc(F)ccc3F)c2cc1F | 8.30 | 7.22 | 6.4 µM·h
